The values below come from patent publication US8263406B2, “Enriched or purified population of motor neurons and its preparation from a population of embryonic stem cells” (Cornell Research Foundation, Inc., priority 2003, dated 2012).

In this assay the test system is hES cells. Nature of the assay: Induction of motor neurons from hES cell-derived embryoid bodies, quantified by immunocytochemistry. The class given is cell-based, human. The settings on record: H1 hES-derived EBs, RA 10 uM. An excerpt:
A modified version of the protocol described in Wichterle et al., “Directed Differentiation of Embryonic Stem Cells into Motor Neurons,” Cell 110:385-397 (2002), which is hereby incorporated by reference in its entirety, was used for induction and differentiation of motor neurons from hES cells (FIG. 1A). For caudalization and specification to motor neurons, 90% confluent hES cell cultures were dissociated to form embryoid bodies (EB) in suspension dishes (Ultra low cluster 6 well plates, […], Mass.). Fresh RA was added every day and fresh medium along with SHH replaced every 72 hrs. After 6-8 days, differentiation of motor neurons was induced by plating the spheres formed onto poly-ornithin/fibronectin coated plates in DMEM/F12 supplemented with N2 (Gibco), GDNF (20 ng/ml), BDNF (20 ng/ml), or neurotrophin 4 (NT4) (20 ng/ml), CNTF (20 ng/ml), B27 (1X) and 2% FBS. After 7-14 days, cultures were either fixed for immunocytochemistry or used for physiology.
Cells were stained at different stages of culture for the following: Tra 1-81 (Mouse IgG, 1:200), SSEA-4 (supernatant, mouse IgG, 1:50, DSHB), βIII-tubulin (mouse IgG; 1:400, Covance), Islet1 (supernatant, mouse IgG, 1:50, Developmental Studies Hybridoma Bank from the University of Iowa (DSHB)), Hb9 (supernatant, mouse IgG, 1:50, DSH), ChAT (Rabbit IgG, 1:200, Chemicon), desmin (Rabbit IgG, 1:200, Sigma), and GFP (mouse IgG, 1:100). […]
To determine if hES cells had the capacity to respond to the caudalizing effects of RA and the ventralizing effects of SHH to generate MNs (Wichterle et al., “Directed Differentiation of Embryonic Stem Cells into Motor Neurons,” Cell 110:385-397 (2002), which is hereby incorporated by reference in its entirety), hES cells were raised to 90% confluency before inducing them to form EBs in suspension cultures. […] After a week in a differentiated condition, the cells were fixed and the percentage of βIII-tubulin expressing neurons was determined. […]

Take `CC1=C(/C=C/C(C)=C/C=C/C(C)=C/C(=O)O)C(C)(C)CCC1` [RA+/SHH−, all-trans retinoic acid]: the “percentage of neurons (βIII-tubulin expressing) generated from the differentiated EBs” value (8-9 days in suspension, one week differentiation with FBS/B27/BDNF/GDNF/CNTF, of total population) was “around 30%”. Under “SHH 200 nM where present, FIG. 2E”, the “percentage of βIII-tubulin expressing neurons that expressed islet-1/ChAT” value is on record as 3%-10%. Besides, the “percentage of βIII-tubulin expressing neurons that expressed Hb9” value (SHH 200 nM where present, FIG. 2F) is on record as 3%-6%.
